Results from patent US7927624B2, “Hydrophilic/lipophilic polymeric matrix dosage formulation” (Jagotec AG, priority 2000, dated 2011).
In brackets after ≈: the same amount, converted by molar mass.

Assay: physchem
Settings: water

CCCN(CCC)CCc1cccc2c1CC(=O)N2 [ropinirole, Ropinirole]
solubility: 133 mg/mL (≈ 511 mM)
